Results on four molecules are retold here after ChEMBL document CHEMBL1201862, “PubChem BioAssay data set” (2004).

Among the test systems are CCRF-CEM; HCT-15; HL-60; HOP-62; HT-29; IGROV-1; LOX IMVI; MDA-N; Malme-3M; NCI-H226; NCI-H23; OVCAR-4; RXF 393; SF-268; SK-MEL-28; SK-MEL-5; SN12C; SW-620.
What all share (assay): DTP human tumour cell line panel, 48 h

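Exposure lasted 48 hours, with cells grown in 96-well plates and compounds tested at five concentrations. Here, GI50 denotes the concentration required for 50% inhibition of growth.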 Active and inactive are the calls of the source. Cut-off read from the data, not from the text of the source: active = GI50 up to about 1.1 µM and inactive = higher. Where only a bound is given, the exact number is not on record here.

As usually defined, the GI50 is the concentration that inhibits growth by half. For the molecule `NC(=O)C[C@H](NC(=O)C1(NC(=O)[C@H](Cc2ccc(CP(=O)(O)O)cc2)NC(=O)C(=O)O)CCCCC1)C(=O)NCCCc1cccc2ccccc12`, the GI50 is 8.28 µM (inactive) with CCRF-CEM; greater than 10 µM in the assay with HCT-15; > 10 µM (inactive) in the assay on HL-60; > 10 µM (inactive) with HOP-62; > 10 µM (inactive) in the assay on HT-29; > 10 µM (inactive) in the assay on IGROV-1. The GI50 in the assay on LOX IMVI was > 10 µM (inactive); in the assay with MDA-N it was > 10 µM (inactive); with Malme-3M it was > 10 µM (inactive); in the assay with NCI-H226 it was 7.45 µM (inactive); in the assay on NCI-H23 it was > 10 µM (inactive); with OVCAR-4 it was > 10 µM (inactive). Further, the GI50 in the assay on RXF 393, in the assay with SF-268, with SK-MEL-28, in the assay on SK-MEL-5, in the assay with SN12C and in the assay on SW-620 was > 10 µM (inactive) each time.
Regarding `CC1=C(C)SC(=C2Sc3c(n(C)c(=O)n(C)c3=O)S2)S1`, the GI50 is > 100 µM (inactive) in the assay with CCRF-CEM; greater than 100 µM with HCT-15; > 100 µM (inactive) with HL-60; 18.7 µM (inactive) in the assay on HOP-62; 76.9 µM (inactive) with HT-29; 59.2 µM (inactive) with IGROV-1. For the same molecule, the GI50 in the assay on LOX IMVI is 48.5 µM (inactive); with MDA-N, 47.6 µM (inactive); with Malme-3M, > 100 µM (inactive); in the assay with NCI-H226 it was 20 µM (inactive); in the assay on NCI-H23, 34.4 µM (inactive); with OVCAR-4 it was 21.4 µM (inactive). The GI50 with RXF 393 was 48.4 µM (inactive); in the assay on SF-268, 43.8 µM (inactive); in the assay on SK-MEL-28 it was > 100 µM (inactive); in the assay with SK-MEL-5 it was 33.7 µM (inactive); with SN12C, 35 µM (inactive); in the assay with SW-620, > 100 µM (inactive).
As to `CC1CC[C@@]2(OC1)O[C@H]1[C@H](O)[C@H]3[C@@H]4CC[C@H]5C[C@@H](OC6OC(CO)C(OC7OC(CO)C(O)C(OC8OCC(O)C(O)C8O)C7OC7OC(CO)C(O)C(O)C7OC7OC(CO)C(O)C(O)C7O)C(O)C6O)[C@H](O)C[C@]5(C)[C@H]4CC[C@]3(C)[C@H]1[C@@H]2C` (some centres not stated), the GI50 was 0.942 µM (active) with CCRF-CEM; greater than 10 µM in the assay on HCT-15; 1.54 µM (inactive) with HL-60; > 10 µM (inactive) in the assay with HOP-62; > 10 µM (inactive) in the assay with HT-29; 3.7 µM (inactive) in the assay on IGROV-1. The GI50 in the assay with LOX IMVI was > 10 µM (inactive); in the assay with MDA-N, > 10 µM (inactive); with Malme-3M it was > 10 µM (inactive); in the assay on NCI-H226 it was > 10 µM (inactive); with NCI-H23, 5.24 µM (inactive); in the assay on OVCAR-4 it was 7.08 µM (inactive). Also, the GI50 in the assay on RXF 393 is > 10 µM (inactive); with SF-268, > 10 µM (inactive); in the assay on SK-MEL-28, > 10 µM (inactive); in the assay with SK-MEL-5 it was > 10 µM (inactive); in the assay with SN12C, 3.89 µM (inactive); in the assay with SW-620, > 10 µM (inactive).
Turning to `C=CCCCC1(C)CCCCNC1=O` (configuration not stated), the GI50 in the assay on CCRF-CEM was > 10 µM (inactive); in the assay on HCT-15, greater than 10 µM; in the assay with HL-60 it was > 10 µM (inactive); in the assay with HOP-62, > 10 µM (inactive); in the assay with HT-29, > 10 µM (inactive); with IGROV-1, > 10 µM (inactive). In addition, the GI50 with LOX IMVI, with MDA-N, in the assay on Malme-3M, in the assay with NCI-H226, with NCI-H23 and in the assay with OVCAR-4 was > 10 µM (inactive) in each case. Besides, the GI50 in the assay on RXF 393, in the assay on SF-268, with SK-MEL-28, in the assay on SK-MEL-5, in the assay on SN12C and in the assay on SW-620 was > 10 µM (inactive) in each case.
